Active and inactive are the calls of the source.
Columns and labels:
[1] = A Cell Based Secondary Assay To Explore Cytotoxicity of Compounds that Sensitize Mycobacterium Tuberculosis to Beta-Lactam Antibiotics.; type: functional
[2] = target: T1, Heat shock factor protein 1 (Mus musculus, UniProt P38532); assay: decrease of HSF1-responsive luciferase luminescence – cell-based, NIH3T3, dose retest, confirmation (AID 2382); type: functional;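 further: NIH3T3 fibroblasts with HSF1-driven luciferase reporter stressed by proteasome inhibitor MG132; luminescence from HSF1-driven luciferase expression after 8 hours of MG132 stress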
T1 sequence (P38532 whole entry): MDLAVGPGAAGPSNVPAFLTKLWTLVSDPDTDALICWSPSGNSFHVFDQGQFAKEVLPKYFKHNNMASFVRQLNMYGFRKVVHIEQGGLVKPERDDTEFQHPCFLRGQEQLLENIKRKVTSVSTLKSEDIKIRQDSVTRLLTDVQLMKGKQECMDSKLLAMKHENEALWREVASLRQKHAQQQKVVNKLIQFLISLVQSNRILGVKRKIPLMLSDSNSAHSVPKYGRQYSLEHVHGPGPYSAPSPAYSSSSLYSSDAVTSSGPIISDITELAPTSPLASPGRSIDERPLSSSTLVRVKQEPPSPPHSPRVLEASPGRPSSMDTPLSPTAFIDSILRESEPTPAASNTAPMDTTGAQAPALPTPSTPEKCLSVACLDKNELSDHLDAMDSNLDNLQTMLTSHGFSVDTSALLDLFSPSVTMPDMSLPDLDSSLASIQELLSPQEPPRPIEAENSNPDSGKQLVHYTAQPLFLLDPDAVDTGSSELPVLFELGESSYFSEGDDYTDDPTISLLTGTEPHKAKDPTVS

[3] = target: T2, Microphthalmia-associated transcription factor (Homo sapiens, UniProt O75030); assay: reducers of TRPM1 reporter luminescence, concentration series – cell-based, SK-MEL-5, cherry-picked, set 3, MITF inhibitor project, dose response (AID 493073); type: functional;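 further: SK-MEL-5 melanoma cells with luciferase driven by the MITF target TRPM1 promoter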
T2 sequence (O75030 whole entry): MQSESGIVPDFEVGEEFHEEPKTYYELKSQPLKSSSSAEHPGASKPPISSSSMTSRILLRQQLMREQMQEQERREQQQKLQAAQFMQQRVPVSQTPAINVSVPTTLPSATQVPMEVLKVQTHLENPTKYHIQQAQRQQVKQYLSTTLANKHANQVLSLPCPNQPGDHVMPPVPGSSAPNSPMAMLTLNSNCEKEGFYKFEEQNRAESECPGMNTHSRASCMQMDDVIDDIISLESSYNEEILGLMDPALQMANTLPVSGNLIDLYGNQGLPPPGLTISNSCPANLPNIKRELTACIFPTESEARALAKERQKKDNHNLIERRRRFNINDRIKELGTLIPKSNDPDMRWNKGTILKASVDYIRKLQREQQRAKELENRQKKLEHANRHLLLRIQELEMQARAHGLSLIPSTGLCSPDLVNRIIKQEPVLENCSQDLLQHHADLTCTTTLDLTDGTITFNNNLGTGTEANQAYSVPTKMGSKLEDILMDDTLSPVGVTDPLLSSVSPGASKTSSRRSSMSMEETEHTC

[4] = HEK-293T cell viability reduction – luminescence, B-cell screen hits, cytotoxicity control for BCR NF-kB inhibitor project, dose response (AID 489021); type: functional, cell-based;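 further: HEK-293T cells carrying an NF-kB luciferase reporter; cells exposed to compound for about 14 hours before viability readout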
[5] = target: T3, Short transient receptor potential channel 4 (Mus musculus, UniProt Q9QUQ5); assay: block of DAMGO-driven TRPC4 calcium entry – cell-based, HEK293 TRPC4/mu-opioid, Fluo-4 calcium, dose response (AID 434942); type: functional;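 further: potency of inhibitors blocking the TRPC4 calcium response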
T3 sequence (Q9QUQ5 whole entry): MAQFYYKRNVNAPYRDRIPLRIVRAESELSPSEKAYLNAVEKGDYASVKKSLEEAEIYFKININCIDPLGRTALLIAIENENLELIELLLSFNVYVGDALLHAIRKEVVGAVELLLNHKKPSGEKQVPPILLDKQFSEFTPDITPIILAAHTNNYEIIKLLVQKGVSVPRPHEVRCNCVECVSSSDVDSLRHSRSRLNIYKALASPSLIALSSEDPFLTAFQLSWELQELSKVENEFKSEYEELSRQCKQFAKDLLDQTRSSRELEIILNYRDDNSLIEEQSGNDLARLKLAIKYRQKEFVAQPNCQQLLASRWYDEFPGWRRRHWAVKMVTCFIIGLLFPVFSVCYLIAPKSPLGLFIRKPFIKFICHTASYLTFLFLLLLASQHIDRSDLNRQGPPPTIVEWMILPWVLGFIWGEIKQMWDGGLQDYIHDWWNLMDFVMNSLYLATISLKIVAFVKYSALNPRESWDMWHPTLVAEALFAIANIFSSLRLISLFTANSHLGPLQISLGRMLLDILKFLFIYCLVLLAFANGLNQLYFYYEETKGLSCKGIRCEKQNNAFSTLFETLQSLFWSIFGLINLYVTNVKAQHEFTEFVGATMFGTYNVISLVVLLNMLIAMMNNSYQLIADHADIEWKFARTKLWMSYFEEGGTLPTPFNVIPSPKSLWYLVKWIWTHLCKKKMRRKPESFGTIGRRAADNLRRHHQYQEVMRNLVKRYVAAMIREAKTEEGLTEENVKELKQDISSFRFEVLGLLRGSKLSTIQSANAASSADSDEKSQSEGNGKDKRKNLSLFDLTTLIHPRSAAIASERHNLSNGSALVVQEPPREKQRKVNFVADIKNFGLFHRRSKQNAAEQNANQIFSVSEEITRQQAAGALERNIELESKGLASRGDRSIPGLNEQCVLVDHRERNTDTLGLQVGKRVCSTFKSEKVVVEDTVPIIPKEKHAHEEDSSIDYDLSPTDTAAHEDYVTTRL

[6] = target: T1, Heat shock factor protein 1; assay: enhancement of HSF1-driven luciferase signal – cell-based, NIH3T3, luminescence, dose retest, confirmation (AID 435004); type: functional;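 further: stress induced by proteasome inhibitor MG132 added 30 min after compound; luciferase reporter driven by HSF1 response element in NIH3T3 cells; actives raise luminescence as potentiators of the MG132 stress response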
[7] = NIH-3T3 fibroblast cytotoxicity, dose response, cytotoxicity control, cell-based, fluorescence, Alamar Blue, secondary assay (AID 2327); type: functional;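 further: NIH-3T3 mouse fibroblasts cultured with fluconazole at 8 µg/mL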
[8] = viability of HCT116 lacking mutant beta-catenin – cell-based, human colon tumor, dose response (AID 1045); type: functional;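 further: HCT116 colon tumor cells with beta catenin knocked out; cells exposed to compound for 60 hours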
[9] = viability of PTEN-deleted HCT116 cells – cell-based, HCT116 PTEN knockout, dose response (AID 1047); type: functional;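 further: HCT116 colon tumor cells with PTEN knocked out; cells exposed to compound for 60 hours before readout; potency for loss of cell viability measured by luminescence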
INS1 = assay: INS-1E survival protection against cytokine death – cell-based, luminescence, retest, dose response (AID 449756); type: functional; conditions: Rattus norvegicus;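 further: cell death triggered by IL-1 beta plus TNF-alpha plus IFN-gamma mixture; protective hits raise ATP signal compared with cytokine alone wells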
[10] = fluconazole-exposed Candida albicans growth modulators – fluorescence, retest, confirmation (AID 2467); type: functional, cell-based
[11] = NIH3T3 cell viability loss – ATP luminescence, mouse fibroblasts, counter-screen, dose response (AID 2010); type: functional, cell-based;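 further: cells exposed to compound for about 90 hours before reading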
[12] = Trypanosoma cruzi growth suppression in host cells – NIH3T3 host cells, beta-gal luminescence, confirmation (AID 2044); type: functional, cell-based;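 further: intracellular parasites grown in NIH/3T3 mouse fibroblasts as host cells; luminescent beta-galactosidase reporter signal from transgenic T. cruzi replicating inside host cells; inhibitors lower the luminescence signal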
cells = type: functional
[13] = THP-1 cell cytotoxicity, dose response, cytotoxicity control for non-replicating M. tuberculosis project (AID 489025); type: functional
[14] = microbe, parasite or virus in culture; type: functional; conditions: Mycobacterium tuberculosis
[15] = Vero E6 cell cytotoxicity, dose response, cytotoxicity control for non-replicating M. tuberculosis project, secondary assay (AID 492998); type: functional, VeroE6; conditions: Vero C1008
[16] = target: Glucose-6-phosphate 1-dehydrogenase (Homo sapiens, UniProt P11413); assay: inhibition of Homo sapiens G6PD, dose series – biochemical, fluorescence, selectivity assay for P. falciparum G6PD inhibitor project, dose response (AID 504792); type: functional
Streptococcus = assay: GAS UMAA2166 growth inhibition – luminescence, BacTiterGlo, counter-screen for streptokinase expression inhibitor project, dose response (AID 1915); type: functional, organism-based;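 further: potency for reduction of bacterial viability or growth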
Streptokinase A = target: T4, Streptokinase A (Streptococcus pyogenes serotype M1, UniProt P10520); assay: viability-normalized secreted streptokinase activity reduction – plasminogen activation absorbance, OD405, dose response (AID 1914); type: functional, Streptococcus pyogenes M1 GAS;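 further: secreted streptokinase activity via plasminogen activation per viability signal from cell pellet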
T4 sequence (P10520 whole entry): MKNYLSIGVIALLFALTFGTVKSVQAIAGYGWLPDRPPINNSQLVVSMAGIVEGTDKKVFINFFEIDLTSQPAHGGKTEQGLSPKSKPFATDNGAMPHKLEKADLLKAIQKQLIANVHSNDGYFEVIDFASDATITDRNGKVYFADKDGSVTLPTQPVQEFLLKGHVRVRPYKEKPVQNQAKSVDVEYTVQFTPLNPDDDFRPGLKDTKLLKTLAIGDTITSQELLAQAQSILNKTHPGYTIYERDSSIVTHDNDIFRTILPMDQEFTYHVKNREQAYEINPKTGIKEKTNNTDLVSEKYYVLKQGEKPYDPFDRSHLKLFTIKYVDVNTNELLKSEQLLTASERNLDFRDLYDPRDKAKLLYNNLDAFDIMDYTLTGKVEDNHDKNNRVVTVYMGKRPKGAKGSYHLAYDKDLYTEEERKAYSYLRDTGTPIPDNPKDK

[17] = system: Streptococcus sp. 'group A'; assay: Streptococcus pyogenes SK(-)GAS viability under kanamycin – luminescence, BacTiterGlo, confirmation, counter-screen for streptokinase expression inhibitor project, dose response (AID 1900); type: functional, organism-based
Estrogen receptor = target: T5, Estrogen receptor (Homo sapiens, UniProt P03372);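 further: potency for inhibiting coactivator peptide recruitment to the receptor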
T5 sequence (P03372 whole entry): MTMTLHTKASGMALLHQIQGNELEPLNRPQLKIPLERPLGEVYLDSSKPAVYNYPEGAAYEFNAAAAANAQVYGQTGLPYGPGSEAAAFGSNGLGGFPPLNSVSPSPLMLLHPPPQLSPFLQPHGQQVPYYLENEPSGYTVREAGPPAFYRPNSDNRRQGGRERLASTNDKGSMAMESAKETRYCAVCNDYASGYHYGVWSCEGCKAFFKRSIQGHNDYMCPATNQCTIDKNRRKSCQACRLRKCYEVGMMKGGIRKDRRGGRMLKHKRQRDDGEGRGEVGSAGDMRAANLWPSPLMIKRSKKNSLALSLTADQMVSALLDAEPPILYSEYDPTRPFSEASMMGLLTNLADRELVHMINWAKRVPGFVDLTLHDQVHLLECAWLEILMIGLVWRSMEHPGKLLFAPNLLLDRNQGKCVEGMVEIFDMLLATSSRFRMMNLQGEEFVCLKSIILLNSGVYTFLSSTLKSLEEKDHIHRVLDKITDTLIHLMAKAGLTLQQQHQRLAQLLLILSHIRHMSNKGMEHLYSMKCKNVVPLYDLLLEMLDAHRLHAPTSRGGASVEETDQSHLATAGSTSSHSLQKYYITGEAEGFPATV

Genome polyprotein = Genome polyprotein (dengue virus type 2, UniProt P29990); assay: flavivirus cap methylation enzyme inhibition – biochemical, confirmation dose response, primary screen (AID 588689); type: functional
[18] = target: Induced myeloid leukemia cell differentiation protein Mcl-1 (Homo sapiens, UniProt Q07820); type: functional
Vero = assay: cells; type: functional; conditions: Chlorocebus sabaeus
Estrogen receptor beta = Estrogen receptor beta (Homo sapiens, UniProt Q92731);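 further: recombinant ER-beta bound to coactivator SRC1 peptide in presence of estradiol agonist; inhibitors block coactivator peptide binding and lower the FRET signal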
Large T antigen = Large T antigen (Simian virus 40, UniProt P03070); type: functional, Betapolyomavirus macacae;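 further: Confirmatory-stage PubChem screen for compounds that inhibit SV40 T antigen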
Sequence of Large T antigen (P03070 whole entry): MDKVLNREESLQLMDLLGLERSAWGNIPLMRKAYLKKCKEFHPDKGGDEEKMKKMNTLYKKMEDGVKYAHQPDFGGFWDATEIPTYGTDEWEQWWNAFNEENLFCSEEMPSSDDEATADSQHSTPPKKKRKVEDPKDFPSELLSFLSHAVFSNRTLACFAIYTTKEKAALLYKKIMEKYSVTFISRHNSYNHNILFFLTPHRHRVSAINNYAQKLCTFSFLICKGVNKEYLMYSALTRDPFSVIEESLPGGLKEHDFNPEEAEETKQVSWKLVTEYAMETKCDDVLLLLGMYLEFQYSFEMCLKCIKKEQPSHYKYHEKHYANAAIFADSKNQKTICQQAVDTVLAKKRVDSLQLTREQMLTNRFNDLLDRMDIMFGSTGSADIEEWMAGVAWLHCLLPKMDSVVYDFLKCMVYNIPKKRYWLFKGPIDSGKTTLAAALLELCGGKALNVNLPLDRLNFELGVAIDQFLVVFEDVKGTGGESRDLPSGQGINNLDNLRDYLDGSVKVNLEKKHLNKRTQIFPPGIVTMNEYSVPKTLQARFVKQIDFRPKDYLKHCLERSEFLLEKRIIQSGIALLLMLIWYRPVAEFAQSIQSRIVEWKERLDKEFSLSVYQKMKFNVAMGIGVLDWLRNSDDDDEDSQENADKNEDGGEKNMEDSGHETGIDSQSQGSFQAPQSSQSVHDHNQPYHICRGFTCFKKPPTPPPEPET

Sequence of Genome polyprotein (P29990 2492-3391 limits assumed): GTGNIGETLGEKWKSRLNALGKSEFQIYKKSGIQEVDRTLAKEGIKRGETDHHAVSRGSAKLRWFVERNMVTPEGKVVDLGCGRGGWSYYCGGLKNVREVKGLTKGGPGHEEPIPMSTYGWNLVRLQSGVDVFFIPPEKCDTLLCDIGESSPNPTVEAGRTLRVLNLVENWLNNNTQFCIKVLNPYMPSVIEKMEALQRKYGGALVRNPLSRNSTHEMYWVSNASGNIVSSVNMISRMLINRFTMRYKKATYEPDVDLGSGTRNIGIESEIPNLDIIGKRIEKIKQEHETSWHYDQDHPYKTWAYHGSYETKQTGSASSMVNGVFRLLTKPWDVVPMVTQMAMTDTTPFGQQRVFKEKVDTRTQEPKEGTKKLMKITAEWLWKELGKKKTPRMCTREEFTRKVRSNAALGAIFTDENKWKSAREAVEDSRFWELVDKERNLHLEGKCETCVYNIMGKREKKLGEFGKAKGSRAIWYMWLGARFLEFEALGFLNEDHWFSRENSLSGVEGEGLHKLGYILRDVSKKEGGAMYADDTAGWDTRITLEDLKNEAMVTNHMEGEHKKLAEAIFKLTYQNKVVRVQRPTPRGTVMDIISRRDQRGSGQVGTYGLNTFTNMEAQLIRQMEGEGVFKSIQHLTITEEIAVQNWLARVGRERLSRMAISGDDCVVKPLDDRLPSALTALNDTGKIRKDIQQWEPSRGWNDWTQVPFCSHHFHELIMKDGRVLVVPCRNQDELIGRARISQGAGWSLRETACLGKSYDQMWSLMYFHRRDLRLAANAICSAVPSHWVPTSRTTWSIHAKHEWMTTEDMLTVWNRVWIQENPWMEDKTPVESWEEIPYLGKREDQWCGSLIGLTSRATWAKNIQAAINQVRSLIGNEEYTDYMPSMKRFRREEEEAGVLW
Sequence of Induced myeloid leukemia cell differentiation protein Mcl-1 (Q07820 whole entry): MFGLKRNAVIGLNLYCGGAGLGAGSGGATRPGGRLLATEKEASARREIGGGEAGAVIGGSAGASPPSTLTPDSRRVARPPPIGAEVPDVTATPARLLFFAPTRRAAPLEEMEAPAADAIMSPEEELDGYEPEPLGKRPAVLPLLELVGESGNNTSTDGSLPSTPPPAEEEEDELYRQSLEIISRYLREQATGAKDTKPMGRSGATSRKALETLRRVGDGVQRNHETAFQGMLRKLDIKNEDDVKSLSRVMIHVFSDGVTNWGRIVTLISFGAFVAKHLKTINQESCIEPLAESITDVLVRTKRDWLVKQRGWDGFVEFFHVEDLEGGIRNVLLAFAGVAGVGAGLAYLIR
Sequence of Estrogen receptor beta (Q92731 whole entry): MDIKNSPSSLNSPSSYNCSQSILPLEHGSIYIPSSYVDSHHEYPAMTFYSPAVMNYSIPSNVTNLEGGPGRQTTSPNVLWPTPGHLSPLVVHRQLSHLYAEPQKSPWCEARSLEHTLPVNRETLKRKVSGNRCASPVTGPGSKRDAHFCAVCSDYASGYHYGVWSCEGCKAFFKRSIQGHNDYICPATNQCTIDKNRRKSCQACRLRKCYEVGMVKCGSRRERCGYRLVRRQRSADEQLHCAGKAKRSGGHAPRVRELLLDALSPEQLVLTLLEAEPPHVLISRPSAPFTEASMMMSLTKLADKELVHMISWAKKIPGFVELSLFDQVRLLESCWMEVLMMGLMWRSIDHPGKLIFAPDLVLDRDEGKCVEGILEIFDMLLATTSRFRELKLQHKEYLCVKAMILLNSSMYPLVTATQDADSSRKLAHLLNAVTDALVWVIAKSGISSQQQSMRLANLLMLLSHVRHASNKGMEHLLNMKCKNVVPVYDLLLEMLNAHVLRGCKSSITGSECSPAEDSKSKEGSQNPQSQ
Sequence of Glucose-6-phosphate 1-dehydrogenase (P11413 whole entry): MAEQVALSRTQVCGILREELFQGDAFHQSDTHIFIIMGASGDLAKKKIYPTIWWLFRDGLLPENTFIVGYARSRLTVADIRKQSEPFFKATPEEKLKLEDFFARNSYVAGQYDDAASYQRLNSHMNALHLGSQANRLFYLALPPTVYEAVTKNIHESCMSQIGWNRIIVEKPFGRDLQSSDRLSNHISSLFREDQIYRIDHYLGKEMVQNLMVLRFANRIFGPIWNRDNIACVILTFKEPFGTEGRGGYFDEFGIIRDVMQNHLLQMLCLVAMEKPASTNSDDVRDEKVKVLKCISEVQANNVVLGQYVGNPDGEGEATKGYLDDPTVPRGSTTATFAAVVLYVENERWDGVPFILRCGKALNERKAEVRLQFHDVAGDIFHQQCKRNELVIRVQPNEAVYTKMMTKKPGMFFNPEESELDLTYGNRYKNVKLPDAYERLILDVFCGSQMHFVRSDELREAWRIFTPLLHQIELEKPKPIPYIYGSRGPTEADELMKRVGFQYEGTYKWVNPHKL

## Nc1c(C(=O)N2CCCC2)sc2nc3c(cc12)CCCCCC3
[1]
  CC50: > 40 µM (active)

## O=C1CCC2S/C(=C/Nc3ccc(C(F)(F)F)cc3)C(=O)N12 (stereo not given)
[2]
  EC50: 2.44 µM (active)
[3]
  AC50: 3.57 µM (active)
[4]
  IC50: > 80 µM (inactive)

## CC#CC[N+](C)(C)CCCCCCCCCCCC
[5]
  EC50: 1.5 µM (active)
[6]
  EC50: > 260 µM (inactive)
[7]
  EC50: > 150 µM (inactive)
[8]
  EC50: 5.82 µM (active)
[9]
  EC50: 4.9 µM (active)
INS1
  AC50: 1.85 µM (active)
[10]
  EC50: 2.85 µM (active)
[11]
  EC50: > 30 µM (not active)
[12]
  EC50: 1.05 µM (active)
[1]
  CC50: > 40 µM (active)

## Cc1cccc(NC(=O)Cn2c(=O)n(Cc3ccccc3)c(=O)c3c(C)c(C)sc32)c1
[1]
  CC50: > 40 µM (active)

## CCOC(=O)Cc1csc(NC(=S)NC(=O)c2ccc(C)cc2)n1
[4]
  IC50: > 80 µM (inactive)

## CC(C)Cn1c([N+](=O)[O-])nc2c1c(=O)[nH]c(=O)n2C
cells
  IC50: 5.98 µM (active)
[13]
  CC50: 9.18 µM (active)
[14]
  CC50: 12.4 µM (active)
[15]
  CC50: 14.6 µM (active)
[4]
  IC50: 47.3 µM (inactive)
[16]
  IC50: > 80 µM (inactive)

## Cc1nn(Cc2ccc(C(=O)Nc3nc4c(C)cccc4s3)o2)c(C)c1Br
Streptococcus
  EC50: 8.54 µM (active)
Streptokinase A
  EC50: 5.58 µM (active)
[17]
  EC50: 4.94 µM (active)
Estrogen receptor
  IC50: > 50 µM (not active)

## COC(=O)C1=C(C(=O)OC)C(c2cc(Cl)ccc2O)c2sc(O)nc2S1 (stereo not given)
Genome polyprotein
  IC50: > 100 µM (active)
[18]
  IC50: 4.4 µM (active)

## O=C1Nc2ccccc2/C1=C/C(=O)c1cccs1
[7]
  EC50: > 150 µM (inactive)
cells
  IC50: 8.52 µM (active)
[2]
  EC50: > 195 µM (not active)
[13]
  CC50: 21.1 µM (active)
[8]
  EC50: 5.7 µM (active)
[15]
  CC50: 14.4 µM (active)
[9]
  EC50: 7.47 µM (active)
[10]
  EC50: 1.75 µM (active)
Vero
  CC50: 17.6 µM (active)

## CCOC(=O)c1cc(-c2ccc(C)cc2)n(CCC(=O)N2CCN(c3ccccn3)CC2)c1C
[1]
  CC50: > 40 µM (active)

## CC(C)(C)c1ccc(C(=O)Nc2nnc(C3=COCCO3)o2)cc1
Streptococcus
  EC50: 9.1 µM (active)
cells
  IC50: 2.11 µM (active)
[13]
  CC50: 34.2 µM (active)
[15]
  CC50: > 20 µM (active)
[17]
  EC50: 0.429 µM (active)

## Cc1cc(C)cc(OCc2nnc(SCC(=O)c3ccccc3)o2)c1
[4]
  IC50: > 80 µM (inactive)

## Oc1ccc(/C=N/c2ccc(N3CCOCC3)cc2)c(O)c1
Estrogen receptor beta
  IC50: 14.4 µM (active)
Large T antigen
  IC50: 12.9 µM (active)
Estrogen receptor
  IC50: 30.4 µM (not active)

## COc1cc2c(=O)n(Cc3ccco3)c(=O)n(CC(=O)c3cccc(Br)c3)c2cc1OC
[8]
  EC50: 9.71 µM (active)
[9]
  EC50: 9.13 µM (active)
[1]
  CC50: 22.2 µM (active)
